Legend:
[1] = Test for measuring dissolution rate (rotating disk method); format: physicochemical; settings: 2nd fluid pH 6.8, 37° C., 50 rpm
Procedure: The dissolution rates of the following crystals were measured under the conditions described below by the rotating disk method (see, J. H. Woods et al., J. Pharm. Soc., 54, 1068 (1955)): a crystalline form of the free carboxamide (obtained in Preparation Example 1), a crystalline form of the hydrochloride of the carboxamide (obtained in Example 1), a crystalline form of the hydrobromide of the carboxamide (obtained in Example 2), a crystalline form of the methanesulfonate (hereunder, referred to as “mesylate”) of the carboxamide (Form A) (obtained in Example 5), a crystalline form of the mesylate of the carboxamide (Form C) (obtained in Example 7) and a crystalline form of the ethanesulfonate (hereunder, referred to as “esylate”) (Form β) (obtained in Example 12). The dissolution rates were calculated based on a range in which linearity was maintained in the relation between concentration and time at the initial stage of dissolution.
(Rotating Disk Method Conditions)
• Solvent: “2nd fluid” (pH 6.8, 500 mL) as described in Japanese Pharmacopoeia 14th Edition, General Tests (disintegration test) • Temperature: 37° C. • Disk rotation speed: 50 rpm • Area of powder contacting with solvent on disk: 1 cm^2 • Sampling amount: approx. 1 mL (HPLC Conditions) • Column: Cadenza CD-18 (Imtakt Corporation; inner diameter 4.6 mm, Column length 100 mm, particle size 3 μm) • Column temperature: 40° C. • Flow rate: 1.0 mL/min • Mobile phase:
Concentration of solution B: 20% • Injection amount: 100 μL • Detection: ultraviolet absorbance photometer (wavelength: 252 nm) • Temperature of auto sampler: 25° C. [Results]

[2] = Evaluation of solid stability (storage 2 weeks; total impurity by HPLC, water content, powder X-ray diffraction); format: physicochemical
Procedure: 2. Storage Conditions for the Solid Stability Test (Period: 2 Weeks) a-2. −20° C. (well closed) b-2. 25° C., light irradiation (1000 1×; shading with aluminum foil, well closed) c-2. 25° C., light irradiation (1000 1×; well closed) […]
e-2. 60° C. (well closed except the following case: slightly open in the case of a crystalline form of the acetic acid solvate of the mesylate (Form I))
3. Method for Measuring the Impurity Amount by HPLC
After storage, the sample solution was prepared by adding a mixed solvent of water and methanol (3:1) to each crystal at 0.1 mg/mL as final concentration.
Tests were conducted by the HPLC method for these sample solutions under the measurement conditions described below, and the eluted peak areas were measured to determine the total impurity amount by the relative area method (impurities of 0.05% or more were counted).
(Formula for Calculating Total Impurity Amount)
• Individual impurity amount (%)=(the peak area for the individual impurity)×100/{(the peak area for carboxamide)+(sum of the peak areas for impurities)} • Total impurity amount (%)=sum of individual impurity amounts (HPLC Measurement Conditions) • Column: Mightysil RP-18 GP (Kanto Kagaku; inner diameter 4.6 mm, column length 150 mm, particle size 3 μm) • Column temperature: constant temperature in vicinity of 40° C. • Flow rate: 1.0 mL/min • Mobile phase:
Solution B: CH3CN:H2O:HClO4=900:100:1 (v/v/v) • Gradient conditions […]
• Injection amount: 10 μL • Detection: ultraviolet absorbance photometer (wavelength: 252 nm) • Temperature of auto sampler: constant temperature in vicinity of 10° C. 4. Powder X-ray Diffraction […]
Measurement of Water Content

[3] = Evaluation of hygroscopicity (storage 1 week; water content, powder X-ray diffraction); format: physicochemical
Procedure: The hygroscopicity and solid stability of a crystalline form of the mesylate of the carboxamide (Form A) (obtained in Example 5), a crystalline form of the mesylate of the carboxamide (Form C) (obtained in Example 7), a crystalline form of the acetic acid solvate of the mesylate of the carboxamide (Form I) (obtained in Example 10) and a crystalline form of the esylate of the carboxamide (Form β) (obtained in Example 12) were measured under the following conditions.
1. Storage Conditions for the Hygroscopicity Test (Period: 1 Week)
a-1. 25° C., relative humidity 75%
b-1. 25° C., relative humidity 93%
Analysis was carried out according to “X-Ray Powder Diffraction Method” described in Japanese Pharmacopoeia 14th Edition, General Tests (B-614 to 619) under the following measurement conditions. • Apparatus: RINT-2000 (manufacture by Rigaku Denki K. K.) • X-ray: CuKα ray • Monochrometer: curved crystal monochrometer • Goniometer: vertical goniometer • Counter: scintillation counter • Applied voltage: 40 kV • Charging current: 200 mA • Scan speed: 5°/min • Scan axis: 2θ/θ • Scan range; 2θ+5° to 40° • Divergent slit: 0.5° • Scattering slit: 0.5° • Receiving slit: 0.3 mm 5. Measurement of Water Content
Measurement was carried out according to the Water Determination as described in Japanese Pharmacopoeia 14th Edition, General Tests (B-318 to 331) using 6 to 10 mg of each crystal.

[4] = Study of pharmacokinetics in beagle dogs; format: in vivo; settings: mean ± standard error; for BA: beagle dogs n=3, oral 3 mg/kg as free form vs single intravenous administration of free form
Procedure: A crystalline form of the free from of the carboxamide (obtained in Preparation Example 1), a crystalline form of the hydrobromide of the carboxamide (obtained in Example 2) and a crystalline form of the mesylate of the carboxamide (Form A) (obtained in Example 5) were grounded in a mortar, encapsulated in a gelatin capsule, and then administered orally to beagle dogs (n=3). After administration, 10 mL of water was further administered orally. The dose was set such that it was equivalent to 3 mg/kg as a free form, and the beagle dogs were fasted from the day before administration, and fed again 8 hours after the administration.
To calculate bioavailability (BA), a test was conducted using a single intravenous administration. More specifically, a crystalline form of the free from of the carboxamide was dissolved in a solution containing 10% dimethyl sulfoxide, 50% polyethylene glycol 400 and 40% 0.1 M aqueous solution of hydrochloric acid and administered intravenously through cephalic vein of the foreleg.
The plasma concentration of the carboxamide was measured by HPLC-UV method after sampling blood from cephalic vein of the foreleg. Based on the concentration, pharmacokinetic parameters were calculated for each individual by the moment method. Further, based on the calculated parameters, the mean value and standard error thereof were calculated.

angiogenesis = settings: free-form product; Example 368 of WO 02/32872; cited from earlier work
c-Kit kinase = c-Kit kinase (Homo sapiens, UniProt P10721); settings: cited from earlier work
c-Kit kinase, sequence (P10721 26-976): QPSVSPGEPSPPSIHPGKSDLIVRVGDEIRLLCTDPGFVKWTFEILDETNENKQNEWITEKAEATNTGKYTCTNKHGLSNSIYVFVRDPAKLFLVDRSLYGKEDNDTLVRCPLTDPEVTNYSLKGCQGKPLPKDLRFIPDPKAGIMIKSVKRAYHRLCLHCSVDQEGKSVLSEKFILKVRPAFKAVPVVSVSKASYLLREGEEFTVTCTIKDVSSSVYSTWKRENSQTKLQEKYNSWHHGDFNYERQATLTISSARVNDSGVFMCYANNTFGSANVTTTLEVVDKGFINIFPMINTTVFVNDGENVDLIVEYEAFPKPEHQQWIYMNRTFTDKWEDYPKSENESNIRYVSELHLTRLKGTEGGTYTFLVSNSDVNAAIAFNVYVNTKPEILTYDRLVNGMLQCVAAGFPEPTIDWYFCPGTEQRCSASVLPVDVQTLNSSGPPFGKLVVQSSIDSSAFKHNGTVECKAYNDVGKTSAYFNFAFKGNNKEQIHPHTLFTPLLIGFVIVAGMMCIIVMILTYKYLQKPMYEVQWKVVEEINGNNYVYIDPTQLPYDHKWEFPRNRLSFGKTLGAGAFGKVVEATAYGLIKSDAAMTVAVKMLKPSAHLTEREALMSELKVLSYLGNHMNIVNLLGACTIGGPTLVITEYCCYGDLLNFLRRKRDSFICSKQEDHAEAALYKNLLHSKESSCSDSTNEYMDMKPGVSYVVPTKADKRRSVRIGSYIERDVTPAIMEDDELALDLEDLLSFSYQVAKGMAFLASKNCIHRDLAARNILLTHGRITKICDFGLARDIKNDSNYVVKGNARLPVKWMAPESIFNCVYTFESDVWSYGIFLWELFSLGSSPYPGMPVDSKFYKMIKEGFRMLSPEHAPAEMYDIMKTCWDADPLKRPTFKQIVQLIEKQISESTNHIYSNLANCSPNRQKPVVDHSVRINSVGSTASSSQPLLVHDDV

[5] = Temperature-controlled powder X-ray diffraction; format: physicochemical; settings: 2° C./min
Procedure: Powder X-ray diffraction was conducted under the measurement conditions similar to those in 4. (powder X-ray diffraction) of Test Examples 3. The temperature was increased according to the following conditions. • Temperature controller: PCT-20 (manufactured by Rigaku Denki K.K.) • Rate for the increase of the temperature: 2° C./min • Measurement temperatures: 30° C., 40° C., 60° C., 80° C., 120° C., 140° C., 180° C., 200° C., 205° C., 210° C. and 215° C. [Results]

[6] = Powder X-ray diffraction with a treatment of humidification; format: physicochemical; settings: room temperature
Procedure: Powder X-ray diffraction was measured under the measurement conditions similar to those in 4. (powder X-ray diffraction) of Test Example 3. Humidification was carried out using a humidity control unit HUM-1A (manufactured by Rigaku Denki K. K.)), to sequentially adjust relative humidity to 3%, 30%, 50%, 60%, 70%, 75%, 80% and 85% at room temperature.

[7] = a-2: −20° C. (well closed), 2 weeks
[8] = b-2: 25° C., light irradiation 1000 lx, shading with aluminum foil, well closed, 2 weeks
[9] = c-2: 25° C., light irradiation 1000 lx, well closed, 2 weeks
[10] = d-2: 40° C., relative humidity 75%, 2 weeks
[11] = e-2: 60° C., 2 weeks (well closed; slightly open for Form I)
[12] = 25° C., relative humidity 75% or 93%, 1 week
[13] = beagle dogs n=3, oral, gelatin capsule, 3 mg/kg as free form, fasted

## COc1cc2nccc(Oc3ccc(NC(=O)NC4CC4)c(Cl)c3)c2cc1C(N)=O.CS(=O)(=O)O [mesylate (Form A), Methanesulfonate of 4-(3-chloro-4-(cyclopropylaminocarbonyl)aminophenoxy)-7-methoxy-6-quinolinecarboxamide]
[1]
  dissolution rate: 11.8 μg/min/cm^2
[2]; [7]
  total impurity: 3.90%
  water content: 0.0%
[2]; [8]
  total impurity: 3.95%
  water content: 0.0%
[2]; [9]
  total impurity: 4.23%
  water content: 0.1%
[2]; [10]
  total impurity: 3.90%
  water content: 0.2%
[2]; [11]
  total impurity: 3.97%
  water content: 0.2%
[2]; solid stability test, 2 weeks, all storage conditions
  changes in water content and appearance, crystal transition: neither remarkable changes in water content and appearance nor crystal transition was observed
[2]; solid stability test, initial
  water content: 0.3%
[2]; solid stability test, initial, HPLC relative area
  total impurity: 4.02%
[3]; [12]
  change in appearance and crystal transition: Neither remarkable change in appearance nor crystal transition was observed
  change of water content: did not change remarkably
  hygroscopicity: not observed
[3]; a-1: 25° C., relative humidity 75%, 1 week
  water content: 0.6%
[3]; b-1: 25° C., relative humidity 93%, 1 week
  water content: 0.7%
[3]; hygroscopicity test, initial
  water content: 0.7%
[4]
  BA: 46.2 ± 5.9%
[4]; [13]
  AUC0-24hr: 3000 ± 400 ng·h/mL
  Maximum plasma concentration (Cmax): 397.1 ± 100.1 ng/mL
  plasma concentration after 24 hours (C24hr): 17.1 ± 2.5 ng/mL
  time to reach maximum plasma concentration (Tmax): 1.67 ± 0.3 h

## COc1cc2nccc(Oc3ccc(NC(=O)NC4CC4)c(Cl)c3)c2cc1C(N)=O [free form, 4-(3-chloro-4-(cyclopropylaminocarbonyl)aminophenoxy)-7-methoxy-6-quinolinecarboxamide]
angiogenesis
  angiogenesis inhibition: excellent angiogenesis inhibition
[1]
  dissolution rate: 0.8 μg/min/cm^2
c-Kit kinase
  inhibitory action for c-Kit kinase: strong inhibitory action
[4]
  BA: 9.1 ± 0.4%
[4]; dog, plasma, beagle dogs n=3, oral, gelatin capsule, 3 mg/kg as free form, fasted, read-out: AUC0-24hr
  AUC(0-t): 600 ng·h/mL
[4]; dog, plasma, beagle dogs n=3, oral, gelatin capsule, 3 mg/kg as free form, fasted, read-out: Maximum plasma concentration (Cmax)
  Cmax: 53.3 ± 9.9 ng/mL
[4]; dog, plasma, beagle dogs n=3, oral, gelatin capsule, 3 mg/kg as free form, fasted, read-out: plasma concentration after 24 hours (C24hr)
  concentration at 24 h: 24 ± 9 ng/mL
[4]; dog, plasma, beagle dogs n=3, oral, gelatin capsule, 3 mg/kg as free form, fasted, read-out: time to reach maximum plasma concentration (Tmax)
  Tmax: 1.17 ± 0.4 h

## COc1cc2nccc(Oc3ccc(NC(=O)NC4CC4)c(Cl)c3)c2cc1C(N)=O.CS(=O)(=O)O.C[S+](C)[O-] [Dimethyl Sulfoxide Solvate of Methanesulfonate of 4-(3-chloro-4-(cyclopropylaminocarbonyl)aminophenoxy)-7-methoxy-6-quinolinecarboxamide]
[5]; temperatures from 30° C. to 80° C.
  crystal transition on heating: crystal transition was not observed
[5]; temperatures of 120° C. or more
  crystal transition on heating: transition to a crystalline form of the mesylate (Form C) was observed

## COc1cc2nccc(Oc3ccc(NC(=O)NC4CC4)c(Cl)c3)c2cc1C(N)=O.CS(=O)(=O)O [mesylate (Form B), Methanesulfonate of 4-(3-chloro-4-(cyclopropylaminocarbonyl)aminophenoxy)-7-methoxy-6-quinolinecarboxamide]
[6]; relative humidity from 3% to 70%
  crystal transition on humidification: did not exhibit a crystal transition
[6]; relative humidity of 75% and 80%
  crystal transition on humidification: mixture of crystalline forms of the mesylate (Form B) and (Form C)
[6]; relative humidity of 85%
  crystal transition on humidification: complete transition to a crystalline form of the mesylate (Form C)

Source: US7612208B2, “Crystalline form of the salt of 4-(3-chloro-4-(cyclopropylaminocarbonyl)aminophenoxy)-7-methoxy-6-quinolinecarboxamide or the solvate of the salt and a process for preparing the same” (Eisai R&D Management Co., Ltd., priority 2003, dated 2009)
